One block for each molecule: values may come before it.
Tests used:
Format in all cases: biochemical, Lactiplantibacillus plantarum
[1] = tested on: T1, β-galactosidase produced by L. plantarum LP-15; test: o-nitrophenol release at […] nm, Lineweaver-Burk, […]; conditions: optimal conditions (pH 6.5, 42 °C); 50 mM phosphate buffer; partially purified enzyme; read-out: Value/Range
T1 construct: gene lacL; native enzyme from solid-state fermentation extract

[2] = target: T1, β-galactosidase produced by L. plantarum LP-15; test: product inhibition kinetics; conditions: competitive, inhibited substrate not told, partially purified enzyme, read-out: Value/Range
Description: product inhibition kinetics on β-galactosidase produced by L. plantarum LP-15

[3] = tested on: T1, β-galactosidase produced by L. plantarum LP-15; test: initial rate kinetics; lactose read-out not told; conditions: conditions not given; partially purified enzyme; read-out: Value/Range
Description: initial rate kinetics; lactose read-out not told on β-galactosidase produced by L. plantarum LP-15

Km [1]: 2.8 ± 0.1 mM
Structure (SMILES): O=[N+]([O-])c1ccccc1O[C@@H]1O[C@H](CO)[C@H](O)[C@H](O)[C@H]1O [ONPG, o-Nitrophenyl-β-D-galactopyranoside]

Ki [2]: 85 mM
Structure (SMILES): OC[C@H]1OC(O)[C@H](O)[C@@H](O)[C@H]1O (stereo partly drawn) [galactose]

Km [3]: 18.5 ± 0.5 mM
Structure (SMILES): OC[C@H]1O[C@@H](O[C@H]2[C@H](O)[C@@H](O)C(O)O[C@@H]2CO)[C@H](O)[C@@H](O)[C@H]1O (stereo partly drawn) [lactose]
